Laboratory results as given in patent US20240279236A1, “COMPOUNDS AND METHODS OF TREATING TUBERCULOSIS” (Fimbrion Therapeutics, Inc., priority 2021, published 2024).

The molecules below were run on WT Mtb Erdman strain (assay: Microplate Alamar Blue Assay (MABA), Mtb growth inhibition). Details: Mycobacterium tuberculosis, ERDMAN, 168 h, Middlebrook 7H9 media, 7 days at 37° C. in 5% CO2.
Format: cell-based, Mycobacterium tuberculosis

Going from `CCc1nc(NCCCc2ccc(-c3cnccn3)cc2)c2cc(C)sc2n1` [Example 371, 2-ethyl-6-methyl-N-(3-(4-(pyrazin-2-yl)phenyl)propyl) thieno[2,3-d]pyrimidin-4-amine] to `CCc1nc(NCCCc2ccc(-c3ncccn3)cc2)c2cc(C)sc2n1` [Example 372, 2-ethyl-6-methyl-N-(3-(4-(pyrimidin-2-yl)phenyl)propyl) thieno[2,3-d]pyrimidin-4-amine], the IC50 rises from 150 nM to 250 nM (1.7-fold).

`CCc1nc(NCCCc2ccc(-c3cccnn3)cc2)c2cc(C)sc2n1` [Example 373, 2-ethyl-6-methyl-N-(3-(4-(pyridazin-3-yl)phenyl)propyl) thieno[2,3-d] pyrimidin-4-amine] and `CCc1nc(NCCCc2ccc(-c3ccnnc3)cc2)c2cc(C)sc2n1` [Example 375, 2-ethyl-6-methyl-N-(3-(4-(pyridazin-4-yl)phenyl)propyl) thieno[2,3-d]pyrimidin-4-amine] are within 1.5-fold of each other in IC50: 1000 nM for the first, 860 nM for the second.

First: CCc1nc(NCCCc2ccc(-c3ccc(OC(F)(F)F)cc3F)cc2)c2cc(C)sc2n1 [Example 374, 2-ethyl-N-(3-(2′-fluoro-4′-(tri-fluoromethoxy)-[1,1′-biphenyl]-4-yl)propyl)-6-methylthieno[2,3-d]pyrimidin-4-amine]
Second: CCc1nc(NCCCc2ccc(-c3ccc(OC(F)(F)F)cn3)cc2)c2cc(C)sc2n1 [Example 376, 2-ethyl-6-methyl-N-(3-(4-(5-(trifluoro-methoxy)pyridin-2-yl)phenyl)propyl)thieno [2,3-d]pyrimidin-4-amine]
The IC50 of the first is 1.8-fold lower: 30 nM for the first, 55 nM for the second.

Compared with `Cc1cc2c(NCCCc3ccc(-c4cnc(F)cn4)cc3)nc(-c3ccoc3)nc2s1` [Example 377, N-(3-[4-(5-fluoropyrazin-2-yl)phenyl]propyl)-2-(furan-3-yl)-6-methylthieno [2,3-d]pyrimidin-4-amine], `Cc1cnc(-c2ccc(CCCNc3nc(-c4ccoc4)nc4sc(C)cc34)cc2)cn1` [Example 393, 2-(furan-3-yl)-6-methyl-N-(3-[4-(5-methyl-pyrazin-2-yl)phenyl]propyl) thieno[2,3-d] pyrimidin-4-amine] is 2-fold higher in IC50: 8 nM for the first, 16 nM for the second.

Compared with `Cc1cc2c(NCCCc3ccc(-c4cnc(C5CC5)cn4)cc3)nc(-c3ccoc3)nc2s1` [Example 378, N-(3-[4-(5-cyclopropyl-pyrazin-2-yl)phenyl]propyl)-2-(furan-3-yl)-6-methylthieno[2,3-d]pyrimidin-4-amine], `Cc1cc2c(NCCCc3ccc(-c4cnc(Cl)cn4)cc3)nc(-c3ccoc3)nc2s1` [Example 395, N-(3-[4-(5-chloropyrazin-2-yl)phenyl]propyl)-2-(furan-3-yl)-6-methylthieno[2,3-d]pyrimidin-4-amine] is 13-fold lower in IC50: 63 nM for the first, 5 nM for the second.

Compared with `Cc1cc2c(NCCCc3ccc(-c4cnc(C(F)(F)F)cn4)cc3)nc(-c3ccoc3)nc2s1` [Example 379, 2-(furan-3-yl)-6-methyl-N-(3-(4-[5-(trifluoromethyl)pyrazin-2-yl]phenyl)propyl) thieno[2,3-d]pyrimidin-4-amine], `Cc1cc2c(NCCCc3ccc(-c4cncc(C(F)(F)F)n4)cc3)nc(-c3ccoc3)nc2s1` [Example 383, 2-(furan-3-yl)-6-methyl-N-(3-(4-[6-(trifluoromethyl)pyrazin-2-yl]phenyl)propyl) thieno[2,3-d]pyrimidin-4-amine] is 19-fold higher in IC50: 12 nM for the first, 230 nM for the second.

Going from `COc1cnc(-c2ccc(CCCNc3nc(-c4ccoc4)nc4sc(C)cc34)cc2)cn1` [Example 380, 2-(furan-3-yl)-N-(3-[4-(5-methoxypyrazin-2-yl)phenyl]propyl)-6-methylthieno[2,3-d]pyrimidin-4-amine] to `Cc1cc2c(NCCCc3ccc(-c4cnc(OC(C)C)cn4)cc3)nc(-c3ccoc3)nc2s1` [Example 392, 2-(furan-3-yl)-6-methyl-N-(3-(4-[5-(propan-2-yloxy)pyrazin-2-yl]phenyl)propyl)thieno[2,3-d]pyrimidin-4-amine], the IC50 rises from 17 nM to 44 nM (2.6-fold).

First: Cc1cc2c(NCCCc3ccc(-c4cnc(N(C)C)cn4)cc3)nc(-c3ccoc3)nc2s1 [Example 381, 5-[4-(3-([2-(furan-3-yl)-6-methylthieno[2,3-d]pyrimidin-4-yl]amino)propyl)phenyl]-N,N-dimethyl-pyrazin-2-amine]
Second: Cc1cc2c(NCCCc3ccc(-c4cnc(CO)cn4)cc3)nc(-c3ccoc3)nc2s1 [Example 403, (5-[4-(3-([2-(furan-3-yl)-6-methylthieno[2,3-d]pyrimidin-4-yl]amino)propyl)phenyl]pyrazin-2-yl)methanol]
The IC50 of the first is 1.8-fold lower: 39 nM for the first, 70 nM for the second.

First: Cc1cc2c(NCCCc3ccc(-c4ccc(F)cn4)cc3)nc(-c3ccoc3)nc2s1 [Example 382, N-(3-[4-(5-fluoropyridin-2-yl)phenyl]propyl)-2-(furan-3-yl)-6-methylthieno[2,3-d]pyrimidin-4-amine]
Second: Cc1cc2c(NCCCc3ccc(-c4ccc(C(F)(F)F)cn4)cc3)nc(-c3ccoc3)nc2s1 [Example 387, 2-(furan-3-yl)-6-methyl-N-(3-(4-[5-(trifluoromethyl)pyridin-2-yl]phenyl)propyl) thieno[2,3-d]pyrimidin-4-amine]
The IC50 of the first is 1.6-fold higher: 8 nM for the first, 5 nM for the second. The second is the more potent here.

Compared with `Cc1cc2c(NCCCc3ccc(-c4ccc(F)nc4)cc3)nc(-c3ccoc3)nc2s1` [Example 384, N-(3-[4-(6-fluoropyridin-3-yl)phenyl]propyl)-2-(furan-3-yl)-6-methylthieno[2,3-d]pyrimidin-4-amine], `Cc1cc2c(NCCCc3ccc(-c4ccnc(O)c4)cc3)nc(-c3ccoc3)nc2s1` [Example 390, 4-[4-(3-([2-(furan-3-yl)-6-methylthieno[2,3-d]pyrimidin-4-yl]amino)propyl)phenyl]pyridin-2-ol] is 1600-fold higher in IC50: 6 nM for the first, 9300 nM for the second.

`Cc1cc2c(NCCCc3ccc(-c4ccnc(C(F)(F)F)n4)cc3)nc(-c3ccoc3)nc2s1` [Example 385, 2-(furan-3-yl)-6-methyl-N-(3-(4-[2-(trifluoromethyl)pyrimidin-4-yl]phenyl)propyl) thieno[2,3-d]pyrimidin-4-amine] and `Cc1cc2c(NCCCc3ccc(-c4cnc(C(F)(F)F)nc4)cc3)nc(-c3ccoc3)nc2s1` [Example 386] are within 1.5-fold of each other in IC50: 200 nM for the first, 220 nM for the second.

First: Cc1cc2c(NCCCc3ccc(-c4ccc(OC(F)(F)F)cn4)cc3)nc(-c3ccoc3)nc2s1 [Example 388, 2-(furan-3-yl)-6-methyl-N-(3-(4-[5-(trifluoro-methoxy)pyridin-2-yl]phenyl)propyl)thieno[2,3-d]pyrimidin-4-amine]
Second: Cc1cc2c(NCCCc3ccc(-c4ccc(C(F)(F)F)nn4)cc3)nc(-c3ccoc3)nc2s1 [Example 389, 2-(furan-3-yl)-6-methyl-N-(3-(4-[6-(trifluoro-methyl)pyridazin-3-yl]phenyl)propyl)thieno[2,3-d]pyrimidin-4-amine]
The IC50 of the first is 4.6-fold lower: 7 nM for the first, 32 nM for the second. The first is the more potent here.

Compared with `Cc1cc2c(NCCCc3ccc(-c4cnccn4)cc3)nc(-c3ccoc3)nc2s1` [Example 391, 2-(furan-3-yl)-6-methyl-N-(3-[4-(pyrazin-2-yl)phenyl]propyl) thieno[2,3-d]pyrimidin-4-amine], `Cc1cc2c(NCCCc3ccc(-c4cnc(C#N)cn4)cc3)nc(-c3ccoc3)nc2s1` [Example 396, 5-[4-(3-([2-(furan-3-yl)-6-methylthieno[2,3-d]pyrimidin-4-yl]amino)propyl)phenyl]pyrazine-2-carbonitrile] is lower in IC50: 62 nM for the first, < 5 nM for the second.

Compared with `Cc1cc2c(NCCCc3ccc(-c4ncc(C(F)(F)F)cn4)cc3)nc(-c3ccoc3)nc2s1` [Example 394, 2-(furan-3-yl)-6-methyl-N-(3-(4-[5-(trifluoromethyl)pyrimidin-2-yl]phenyl)propyl) thieno[2,3-d] pyrimidin-4-amine], `Cc1cc2c(NCCCc3ccc(-c4ncc(F)cn4)cc3)nc(-c3ccoc3)nc2s1` [Example 402, N-(3-[4-(5-fluoropyrimidin-2-yl)phenyl]propyl)-2-(furan-3-yl)-6-methylthieno[2,3-d]pyrimidin-4-amine] is higher in IC50: < 4 nM for the first, 8 nM for the second.

`Cc1cc2c(NCCCc3ccc(-c4cnc5[nH]ccc5n4)cc3)nc(-c3ccoc3)nc2s1` [Example 397, 2-(furan-3-yl)-6-methyl-N-[3-(4-(5H-pyrrolo[2,3-b]pyrazin-2-yl)phenyl)propyl] thieno[2,3-d] pyrimidin-4-amine] and `CSc1cnc(-c2ccc(CCCNc3nc(-c4ccoc4)nc4sc(C)cc34)cc2)cn1` [Example 399, 2-(furan-3-yl)-6-methyl-N-(3-(4-[5-(methylsulfanyl)pyrazin-2-yl]phenyl)propyl) thieno[2,3-d] pyrimidin-4-amine] cannot be ordered by IC50: 5000 nM for the first, > 270 nM for the second.

`Cc1cc2c(NCCCc3ccc(-c4ccc(S(C)(=O)=O)cn4)cc3)nc(-c3ccoc3)nc2s1` [Example 398, 2-(furan-3-yl)-N-(3-[4-(5-methanesulfonyl-pyridin-2-yl)phenyl]propyl)-6-methylthieno [2,3-d]pyrimidin-4-amine] and `Cc1cc2c(NCCCc3ccc(-c4ccc(N(C)C)nn4)cc3)nc(-c3ccoc3)nc2s1` [Example 400, 6-[4-(3-([2-(furan-3-yl)-6-methylthieno [2,3-d]pyrimidin-4-yl]amino)propyl)phenyl]-N,N-dimethylpyridazin-3-amine] cannot be ordered by IC50: > 460 nM for the first, > 500 nM for the second.

Compared with `Cc1cc2c(NCCCc3ccc(-c4cnc(C(=O)N(C)C)cn4)cc3)nc(-c3ccoc3)nc2s1` [Example 401, 5-[4-(3-([2-(furan-3-yl)-6-methylthieno[2,3-d]pyrimidin-4-yl]amino)propyl)phenyl]-N,N-dimethylpyrazine-2-carboxamide], `CCc1nc(NCCCc2ccc(N3CCOCC3)cc2)c2cc(C)sc2n1` [Example 420, 2-ethyl-6-methyl-N-(3-(4-morpholinophenyl)propyl)thieno[2,3-d]pyrimidin-4-amine] is 14-fold lower in IC50: 2200 nM for the first, 160 nM for the second.

Going from `CCc1nc(NCCCc2ccc(N3CCCCC3)cc2)c2cc(C)sc2n1` [Example 421, 2-ethyl-6-methyl-N-(3-(4-(piperidin-1-yl)phenyl)propyl) thieno[2,3-d]pyrimidin-4-amine] to `Cc1cc2c(NCCCc3ccc(N4CCOCC4)cc3)nc(C(F)(F)F)nc2s1` [Example 422, 6-methyl-N-(3-(4-morpholinophenyl)propyl)-2-(trifluoromethyl) thieno[2,3-d]pyrimidin-4-amine], the IC50 rises from 170 nM to 2100 nM (12-fold).
